Assay results published in patent publication US20250214925A1, “CATIONIC LIPID, LIPOSOME, LIPID NANOPARTICLE, AND USE” (CARCELL BIOPHARMA LTD., priority 2022, published 2025).

What was measured:
[1] = LNP size and PDI by dynamic laser light scattering; assay type: physicochemical; conditions: LNP: 50% cationic lipid, 38.5% cholesterol, 10% DSPC, 1.5% DMG-PEG2000; Ffluc mRNA
Outline: (§1)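 LNPs of cationic lipid/cholesterol/DSPC/DMG-PEG2000 at 50/38.5/10/1.5 mol% in ethanol, mixed with Ffluc mRNA at 0.2 mg/mL in 10 mM pH 4.0 citrate via T-mixer at 40 mL/min. Dialyzed overnight against 50 mM Tris-buffered saline pH 7.4 and sieved; PDI by dynamic light scattering, encapsulation by Ribogreen.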

[2] = mRNA encapsulation efficiency of LNP by Ribogreen assay; assay type: physicochemical; conditions: LNP: 50% cationic lipid, 38.5% cholesterol, 10% DSPC, 1.5% DMG-PEG2000; Ffluc mRNA
Outline: as §1

mice [3] = assay: In vivo delivery of Ffluc mRNA LNP in mice, intramuscular administration, luminescence relative to MC3; parameters: species or system mice (female Balb/C); conditions: fold change in luminescence intensity relative to MC3; 50 μL of 0.1 mg/mL mRNA LNP into right thigh; 6 h after injection
Method: The prepared encapsulation solution was applied to mice in the following manner, and its delivery efficiency in mice was tested. Among them, DLin-MC3-DMA (MC3) was a cationic liposome for delivering small nucleic acids that was approved by the FDA for marketing in 2018, which has high nucleic acid drug delivery efficiency and biosafety, and was usually used as the industry gold standard in the screening process of cationic lipids. In the evaluation of mice experiments, the ratio of nucleic acid delivery efficiency normalized to MC3 was greater than 0.1, which was considered to be a cationic lipid with high delivery efficiency.
The LNP solution was diluted with 50 mM TBS, pH 7.4 to a concentration of 0.1 mg/mL mRNA.
2. The mice involved in this study were female Balb/C, weighing 18-22 g, 6-8 weeks old, with 5 mice in each group.
3. The dosing solution was kept at 4° C. prior to injection.
4. 50 μL of LNP solution was injected into the right thigh of the mice.
5. The mice were injected intraperitoneally with 200 μL of 1.5 mg/mL D-luciferin solution 6 h after injection.
6. The in vivo luminescence images of the mice were obtained using the IVIS system (Aniview).
7. The luminescence intensity of each mice was measured using Aniview software.
8. MC3 lipid nanoparticles were used as a positive control. The in vivo efficacy of each cationic lipid tested was recorded as the fold change in luminescence intensity relative to MC3 (ratio normalized to MC3).

mice [4] = assay: In vivo delivery of Ffluc mRNA LNP in mice, intravenous administration, luminescence relative to MC3; parameters: species or system mice (female Balb/C); conditions: fold change in luminescence intensity relative to MC3; 0.06 mg/kg tail vein; 6 h after injection
Outline: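 Female Balb/C mice (18-22 g, 6-8 weeks, n=5) received Ffluc mRNA LNP at 0.06 mg/kg by tail vein in 50 mM TBS pH 7.4. Six hours later, intraperitoneal D-luciferin was given and whole-body luminescence imaged, with each lipid reported as fold change relative to MC3 LNP.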

Row | SMILES | PDI [1] | Size (nm) [1] [nm] | Encapsulation Rate [2] [%] | In Vivo Efficacy Normalized To Mc3 In Mice (Intramuscular Injection) (mice [3]) | In Vivo Efficacy Normalized To Mc3 In Mice (Intravenous Injection) (mice [4])
1 | CCCCCCCC/C(=C/C(=O)OCCCCCCCCCN(CCCO)CCCCCCCCCOC(=O)/C=C(\CCC)CCCCCCCC)CCC [CPL-127, ((3-hydroxypropyl)azanediyl)bis(nonane-9,1-diyl) (2E,2′E)-bis(3-propylundec-2-enoate)] | 0.0486 | 94.43 | 92 | 2.37 | 2.54
2 | CCCCC/C(=C/C(=O)OCCCCCCCCCN(CCCO)CCCCCCCCCOC(=O)/C=C(\CCCC)CCCCC)CCCC [CPL-133-01, ((3-hydroxypropyl)azanediyl)bis(nonane-9,1-diyl) (2E,2′E)-bis(3-butyloct-2-enoate)] | 0.0569 | 80.25 | 97 | 6.61 | 3.54
3 | CCCCCCCCCC/C(=C\C(=O)OCCCCCCCCCN(CCCO)CCCCCCCCCOC(=O)/C=C(\CCCCC)CCCCCCCCCC)CCCCC [CPL-136] | 0.2 | 92.9 | 98 | 1.61 | 2.81
4 | CCCCCC/C(=C/C(=O)OCCCCCCCCCCN(CCCO)CCCCCCCCCCOC(=O)/C=C(\CCC)CCCCCC)CCC [CPL-148, ((3-hydroxypropyl)azanediyl)bis(decane-10,1-diyl) (2E,2′E)-bis(3-propylnon-2-enoate)] | 0.1437 | 90.31 | 93 | 2.56 | 2.15
5 | CCCCCC/C(=C\C(=O)OCCCCCCCCCCN(CCCO)CCCCCCCCCCOC(=O)/C=C(/CCCC)CCCCCC)CCCC [CPL-152, ((3-hydroxypropyl)azanediyl)bis(decane-10,1-diyl) (2Z,2′Z)-bis(3-butylnon-2-enoate)] | 0.05 | 72.18 | 95 | 2.62 | 2.03
6 | CCCCCC/C(=C/C(=O)OCCCCCCCCCCCN(CCCO)CCCCCCCCCCCOC(=O)/C=C(\CCCC)CCCCCC)CCCC [CPL-174-01, ((3-hydroxypropyl)azanediyl)bis(undecane-11,1-diyl) (2E,2′E)-bis(3-butylnon-2-enoate)] | 0.18 | 112 | 97 | 1.20 | 2.32
7 | CCCCCCCCCC/C(=C/C(=O)OCCCCCCCCCCCN(CCCO)CCCCCCCCCCCOC(=O)/C=C(\CCCCC)CCCCCCCCCC)CCCCC [CPL-180-01, ((3-hydroxypropyl)azanediyl)bis(undecane-11,1-diyl) (2E,2′E)-bis(3-pentyltridec-2-enoate)] | 0.1334 | 66.8 | 86 | 0.72 | 9.31
8 | CCCCCC/C(=C/C(=O)OCCCCCCCCN(CCCO)CCCCCCCCOC(=O)/C=C(\CCCC)CCCCCC)CCCC [CPL-456-01, ((3-hydroxypropyl)azanediyl)bis(octane-8,1-diyl) (2E,2′E)-bis(3-butylnon-2-enoate)] | 0.1225 | 70.36 | 85 | 5.51 | 7.36
9 | CCCCCC/C(=C/C(=O)OCCCCCCCCN(CCCCO)CCCCCCCCOC(=O)/C=C(\CCCC)CCCCCC)CCCC [CPL-457-01, ((4-hydroxybutyl)azanediyl)bis(octane-8,1-diyl) (2E,2′E)-bis(3-butylnon-2-enoate)] | 0.078 | 73 | 90 | 12.13 | 5.49
